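96-well plates; 48 h exposure; 5 concentrations. Endpoints by linear interpolation between flanking doses. Not reached: highest tested concentration assigned. TGI denotes the concentration required for complete inhibition of growth.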

TGI data for 8 compounds are collected here from PubChem BioAssay (NCI).

Some test systems named below: SK-MEL-5 melanoma; SK-MEL-2 melanoma; MCF7 breast; SF-539 CNS; SF-268 CNS; SF-295 CNS; RXF 393 renal; SR leukemia; TK-10 renal; T-47D breast; NCI-H522 lung; MDA-N; SK-MEL-28 melanoma; HCT-116 colon; OVCAR-4 ovarian; SNB-19 CNS; SN12C renal.
Common to all, as to experiment: DTP human tumour cell line panel, 48 h

For the compound `COCC1OC(OC2C3=C(C(C)C)CCC3(C)/C=C3\C(CCC3(O)COC)C(C)C2O)C(O)C2OC3OC12OC3(C)C1CO1` (stereo unspecified), the total growth inhibition concentration (TGI) (commonly the concentration giving total growth inhibition) is 67.3 µM in the test on SK-MEL-5 melanoma; more than 100 µM with SK-MEL-2 melanoma; more than 100 µM in the test on MCF7 breast; more than 100 µM with SF-539 CNS; 68.4 µM with SF-268 CNS; more than 100 µM in the test on SF-295 CNS. In addition, the TGI is more than 100 µM in the test on RXF 393 renal; 75.7 µM in the test with SR leukemia; more than 100 µM in the test with TK-10 renal; more than 100 µM with T-47D breast; 82.4 µM in the test on NCI-H522 lung; more than 100 µM in the test with MDA-N. For the same compound, the TGI with SK-MEL-28 melanoma, in the test on HCT-116 colon, in the test with OVCAR-4 ovarian, with SNB-19 CNS and with SN12C renal was more than 100 µM in each case.
As to `CCc1n[nH]c(=O)n1/N=C/c1ccccc1Cl`, the TGI with SK-MEL-5 melanoma, in the test on SK-MEL-2 melanoma, in the test with MCF7 breast, with SF-539 CNS, in the test with SF-268 CNS and with SF-295 CNS was more than 100 µM in each case. For the same compound, the TGI in the test with RXF 393 renal, with SR leukemia, with TK-10 renal, in the test on T-47D breast, with NCI-H522 lung and in the test with MDA-N was more than 100 µM in each case. The TGI in the test with SK-MEL-28 melanoma, in the test on HCT-116 colon, in the test on OVCAR-4 ovarian, in the test on SNB-19 CNS and in the test with SN12C renal was more than 100 µM throughout.
With `CC1(C2(C)OC(=O)c3ccccc32)OC(=O)c2ccccc21` (stereo unspecified), the TGI in the test on SK-MEL-5 melanoma, with SK-MEL-2 melanoma, in the test on MCF7 breast, in the test on SF-539 CNS, in the test with SF-268 CNS and with SF-295 CNS was more than 100 µM in each case. Moreover, the TGI in the test with RXF 393 renal, in the test on SR leukemia, with TK-10 renal, in the test with T-47D breast, with NCI-H522 lung and with MDA-N was more than 100 µM in each case. Moreover, the TGI in the test on SK-MEL-28 melanoma, in the test on HCT-116 colon, with OVCAR-4 ovarian, with SNB-19 CNS and in the test with SN12C renal was more than 100 µM in each case.
As for `N#CCCN(CCC#N)c1ccc(C(N=Nc2ccccc2)=Nc2ccccc2)cc1`, the TGI with SK-MEL-5 melanoma, in the test with SK-MEL-2 melanoma, in the test with MCF7 breast, with SF-539 CNS, with SF-268 CNS and in the test on SF-295 CNS was more than 100 µM throughout. Besides, the TGI with RXF 393 renal, with SR leukemia, in the test with TK-10 renal, in the test with T-47D breast, in the test on NCI-H522 lung and in the test on MDA-N was more than 100 µM in each case. Moreover, the TGI in the test with SK-MEL-28 melanoma, with HCT-116 colon, in the test on OVCAR-4 ovarian, with SNB-19 CNS and in the test on SN12C renal was more than 100 µM each time.
In the case of `CCCCC(=O)Nc1ccc2cc(C(=O)OC)c(ON3C(=O)c4ccccc4C3=O)nc2n1`, the TGI in the test with SK-MEL-5 melanoma is more than 100 µM; in the test on SK-MEL-2 melanoma it was more than 100 µM; in the test with MCF7 breast, more than 100 µM; with SF-539 CNS it was 43.5 µM; in the test on SF-268 CNS, 81.2 µM; in the test with SF-295 CNS, more than 100 µM. Moreover, the TGI was 52.3 µM in the test on RXF 393 renal; more than 100 µM with SR leukemia; 46.2 µM with TK-10 renal; more than 100 µM with T-47D breast; 58.5 µM in the test on NCI-H522 lung; 80.7 µM with MDA-N. Also, the concentration for total growth inhibition (TGI) in the test on SK-MEL-28 melanoma is 53.5 µM; in the test on HCT-116 colon, 45.9 µM; in the test on OVCAR-4 ovarian it was 81.2 µM; with SNB-19 CNS it was more than 100 µM; in the test on SN12C renal, more than 100 µM.
Take `CC1(C)CC[C@]2(C)CC=C3[C@]4(C)CC[C@H]5C(C)(C)C(=O)CC[C@]5(C)[C@H]4CC[C@@]3(C)[C@H]2C1`: the TGI with SK-MEL-5 melanoma, with SK-MEL-2 melanoma, with MCF7 breast, in the test with SF-539 CNS, in the test with SF-268 CNS and with SF-295 CNS was more than 100 µM throughout. In addition, the TGI in the test with RXF 393 renal, with SR leukemia, in the test with TK-10 renal, with T-47D breast, in the test with NCI-H522 lung and in the test with MDA-N was more than 100 µM throughout. For the same compound, the TGI in the test on SK-MEL-28 melanoma, in the test on HCT-116 colon, in the test with OVCAR-4 ovarian, with SNB-19 CNS and in the test with SN12C renal was more than 100 µM throughout.
With `O=C/C(=C(/Br)I)c1ccccc1`, the TGI amounted to 13.8 µM in the test with SK-MEL-5 melanoma; 13.5 µM with SK-MEL-2 melanoma; 2.57 µM with MCF7 breast; 6.11 µM in the test on SF-539 CNS; 7.97 µM in the test on SF-268 CNS; 13.9 µM in the test with SF-295 CNS. Further, the TGI is 7.2 µM in the test with RXF 393 renal; 2.3 µM with SR leukemia; 20.2 µM with TK-10 renal; 3.85 µM in the test with T-47D breast; 3.41 µM in the test with NCI-H522 lung; 6.86 µM in the test on MDA-N. Besides, the TGI in the test with SK-MEL-28 melanoma was found to be 2.6 µM; in the test with HCT-116 colon, 4.52 µM; in the test on OVCAR-4 ovarian, 10.6 µM; in the test with SNB-19 CNS, 31.4 µM; in the test on SN12C renal, 3.64 µM.
For the compound `CN1CN(c2ccccc2)C2(CCN(CCCSc3ccccc3NC(=O)/C=C/c3ccccc3)CC2)C1=O`, the TGI in the test with SK-MEL-5 melanoma is 9.18 µM; in the test with SK-MEL-2 melanoma, 6.12 µM; in the test with MCF7 breast, more than 49.8 µM; in the test on SF-539 CNS, 6.45 µM; in the test with SF-268 CNS it was more than 46 µM; with SF-295 CNS, 7.95 µM. Further, the concentration for total growth inhibition (TGI) with RXF 393 renal is 31.9 µM; with SR leukemia it was 12.3 µM; in the test on TK-10 renal, 34.4 µM; in the test on T-47D breast, more than 59.7 µM; in the test with NCI-H522 lung it was 62.4 µM; in the test on MDA-N, 6.33 µM. In addition, the concentration for total growth inhibition (TGI) with SK-MEL-28 melanoma was 6.09 µM; in the test on HCT-116 colon it was 8.76 µM; with OVCAR-4 ovarian, more than 37 µM; in the test on SNB-19 CNS, 25.1 µM; in the test with SN12C renal it was 15.1 µM.
